Test results: US20160113900A1, “INHIBITORS OF MITOCHONDRIAL STAT3 AND USES THEREOF IN MODULATION OF MAST CELL EXOCYTOSIS” (Yissum Research Development Company of the Hebrew …, priority 2014, published 2016)

Experiments:
[1] = system: cytochrome c oxidase (COX, complex 4); assay: ETC complex activity analysis in treated RBL cells: complex 4; format: cell-based, rat; conditions: 60 μM Stattic, 30 min
Method: The enzymatic activities of respiratory chain complexes were measured at 37° C. by standard spectrophotometric methods as previously described5, 6. Briefly, complex II was measured as succinate dehydrogenase (SDH) based on the succinate-mediated phenazine methosulfate reduction of dichloroindophenol at 600 nm Complex 2+3 were measured as succinate cytochrome c reductase and after the reduction of oxidized cytochrome c at 550 nm. Complex 4 (cytochrome c oxidase) was measured by following the oxidation of reduced cytochrome c at 550 nm.
Citrate synthase (CS), an ubiquitous mitochondrial matrix enzyme, serving as a control, was measured in the presence of acetylCoA and oxaloacetate by monitoring the liberation of CoASH coupled to 5′,5′-dithiobis(2-nitrobenzoic) acid at 412 nm. Activities are presented as a ratio to CS. Protein concentration was determined by the Lowry method and calculated according to a bovine serum albumin (BSA) standard curve.

RBL cells [2] = assay: ATP determination (ATPLite luminescence) in RBL cells; format: cell-based, rat; conditions: RBL cells, 60 μM Stattic, 20 min
Method: (§1) RBL-2H3 cells were maintained in RPMI 1640 medium as previously described1. Bone marrow was isolated from 5-6 week-old mice, and BMMC were cultured in RPMI medium supplemented with 20 ng/ml interleukin-3 (IL-3) and 20 ng/ml SCF as previously described2, 3. Cells were generally grown for a minimum of 4 weeks and used when >90% of the population expressed FcεRI. BMMC and RBL cells were sensitized first with anti-DNP IgE monoclonal antibody (SPE-7; Sigma-Aldrich Corp.) and then challenged with DNP-BSA (Sigma-Aldrich Corp.). IgE antibody was centrifuged (18,000 g, 5 min) before use to remove aggregates. […] For glycolysis elimination cells were maintained in glucose-free RPMI supplemented with 10% dialyzed fetal calf serum and 5 mM galactose.
ATP levels were measured using the ATPLite luminescence-based assay according to the manufacturer's instructions (Perkin Elmer, Waltham, Mass., USA).

RBL cells [3] = assay: β-Hexosaminidase release assay (degranulation) in RBL cells; format: cell-based, rat; conditions: RBL cells
Method: as §1
1×104 RBL or 3×104 BMMC were immunologically activated as described above. After IgE incubation, the cells were washed three times with 5 mL of degranulation buffer (NaCl 130 mM, KCl 5 mM, Glucose 5.6 mM, MgCl2 1 mM, CaCl2 1.2 mM, Hepes pH 7.4 10 mM, BSA 0.1%) and resuspended in 200 μL of the same buffer with DNP-albumin for 30 min. The release of β-hexosaminidase was determined in triplicates in a 96-well plate. Aliquots (20 μL) of supernatants and cell lysates were incubated for 30 minutes with 100 μL of substrate solution (1.3 mg/mL p-nitrophenyl-b-D-2-acetamido-2-deoxyglucopyranozide in 0.1 M citrate [pH 4.51]). The reaction was stopped by the addition of 200 μL of 0.2 M glycine (pH 10.7). The plate OD was read in an enzyme-linked immunosorbent assay (ELISA) reader at a wavelength of 405 nm Percent release values for each experimental condition were calculated3.

caspase3 = assay: Western blot of caspase3 / cleaved caspase3 (apoptosis) in RBL cells; format: cell-based, rat; conditions: activated RBL cells, 60 μM Stattic
Method: RBL cells and mitochondrial pellets were lysed by the addition of lysis buffer (50 mM Tris-HCl pH 7.4, 1% Nonidet P-40, 0.25% Na-deoxycholate, 150 mM NaCl, 1 mM EDTA, 1 mM PMSF) supplemented with 15 μl protease inhibitor (Sigma-Aldrich). Cells and mitochondria were vortexed and incubated on ice for 15 min. The lysates were then centrifuged at 14,000 g for 15 min and pellets were discarded. The protein concentration of each sample was determined using Bradford Reagent (Sigma-Aldrich). Proteins were resolved by 10-15% SDS-PAGE under reducing conditions and transferred to polyvinylidene difluoride membranes (Millipore Billerica, Ma). The membranes were incubated in 5% fat-free milk and TBST (10 mM Tris-HCl, pH 7.4, 150 mM NaCl, 0.1% Tween 20) for 1 h and then in 5% BSA and TBST containing various dilutions of primary Abs for 18 h at 4° C. The membranes were washed three times with TBST for 5 mM before and after each incubation with secondary Ab. The proteins were detected with the appropriate secondary Ab (1 h; room temperature) coupled to HRP-conjugated goat anti-rabbit or anti-mouse Ab and visualized by chemiluminescence according to the manufacturer's instructions (Pierce).

CBMC = assay: β-Hexosaminidase release assay (degranulation) in human cord blood-derived mast cells; format: cell-based; conditions: 60 μM Stattic 5 min before α-human-IgE, control cells 20.9±4.9

Compound: O=[N+]([O-])c1ccc2c(c1)S(=O)(=O)C=C2 [Stattic, 6-Nitrobenzo[b]thiophene 1,1-dioxide, reference compound]
- change in cytochrome c oxidase (COX, complex 4) activity [1]: No significant change
- reduction in ATP levels (RBL cells [2]): 72.0±9.0%
- degranulation (RBL cells [3]; 5 min incubation with Stattic (data not shown)): totally abolished
- β-hexosaminidase release (RBL cells [3]; IgE/DNP-BSA, 60 μM Stattic 20 min): completely abolished
- effect on IgE-Ag mediated β-hexosaminidase release, dependence on concentration (RBL cells [3]; stated concentrations of Stattic (FIG. 6)): concentration dependent
- caspase3 levels (apoptosis) (caspase3): no change
- degranulation (β-hexosaminidase release) (CBMC): 3.5±1.9
